# Measured values: patent publication US4517202A, “Prostaglandin analogues” (May & Baker Limited, priority 1982, dated 1985)
# Like-named read-outs stand apart in the source and are kept apart here.
# Experiments:
# [1] = test system: artery and some other kinds of smooth muscle; conditions: cited from earlier work
# blood platelets = conditions: cited from earlier work
# [2] = test system: collagen-induced β-thromboglobulin release; experiment: inhibition of collagen-induced β-thromboglobulin release in vitro in human blood; format: cell-based; conditions: read-out: ED50 (concentration which produced 50% inhibition of the β-thromboglobulin release)
# [3] = test system: arachidonic acid-induced blood platelet aggregation of the human; conditions: human platelets; cited from earlier work
# [4] = cited from earlier work
# [5] = isomerisation of (Z)-isomer at ambient temperature; format: physicochemical
# diastolic blood pressure = experiment: fall in diastolic blood pressure in anaesthetised rats; format: in vivo; conditions: rats anaesthetised with pentobarbitone; intravenously at a rate of 45 μg/kg animal body weight
# Method: In other laboratory tests, compound B produced a 25% fall in diastolic blood pressure in rats (anaesthetised with pentobarbitone) when administered intravenously at a rate of 45 μg/kg animal body weight.
smiles,measurement,setting,value
CCCCC[C@H](O)/C=C/[C@H]1O[C@H]2C[C@H](O2)[C@@H]1C/C=C\CCCC(=O)O [thromboxane A2],activity on the artery and some other kinds of smooth muscle,[1],contracting activity
same,aggregating activity on blood platelets,blood platelets,aggregating activity
"O=C(O)CCC/C=C1\C[C@H]2[C@H](CC[C@@H]2/C=C/C(O)C2CCCCC2)C1=O (relative stereo) [Compound I, (±)-(5E,13E)-(9S),[mixture of (15R) and (15S)]-6a-oxo-6,9-methano-15-cyclohexyl-15-hydroxy-16,17,18,19,20-pentanorprosta-5,13-dienoic acid]",IC50,[2],< 17 µg/mL
"CCCCC[C@H](O)/C=C/[C@@H]1[C@H]2C/C(=C/CCCC(=O)O)O[C@H]2C[C@H]1O [PGI2, (5Z,13E)-(9S,11R,15S)-6,9-epoxy-11,15-dihydroxyprosta-5,13-dienoic acid]",inhibition of arachidonic acid-induced blood platelet aggregation,[3],strongly inhibits
same,activity on the artery and some other kinds of smooth muscle,[1],strong relaxing activity
same,time to deactivation in a buffer solution,"[4]; pH 7.6, 22° C.",20 min
same,time to deactivation in a buffer solution,"[4]; pH 7.6, 37° C.",10 min
O=C(O)CCC/C=C1/C[C@H]2[C@H](CC[C@@H]2/C=C/[C@@H](O)C2CCCCC2)C1=O (relative stereo) [(Z)-isomer],isomerisation back to the (E)-isomer,[5],slowly isomerised back to the (E)-isomer
"O=C(O)CCC/C=C1\C[C@H]2[C@H](CC[C@@H]2/C=C/[C@@H](O)C2CCCCC2)C1=O (relative stereo) [Compound B, (±)-(5E,13E)-(9S,15S)-6a-oxo-6,9-methano-15-cyclohexyl-15-hydroxy-16,17,18,19,20-pentanorprosta-5,13-dienoic acid]",fall in diastolic blood pressure,diastolic blood pressure,25%
same,IC50,[2],5 µg/mL
"CCCCCC(O)/C=C/[C@H]1CC[C@@H]2C(=O)/C(=C\CCCC(=O)O)C[C@@H]21 (relative stereo) [Compound F, (±)-(5Z,13E)-(9S), [mixture of (15R) and (15S)]-6a-oxo-6,9-methano-15-hydroxyprosta-5,13-dienoic acid]",IC50,[2],< 17 µg/mL
"CCCCCC(O)/C=C/[C@H]1CC[C@@H]2C(=O)/C(=C/CCCC(=O)O)C[C@@H]21 (relative stereo) [Compound E, (±)-(5E,13E)-(9S), [mixture of (15R) and (15S)]-6a-oxo-6,9-methano-15-hydroxyprosta-5,13-dienoic acid]",IC50,[2],34 µg/mL
